Tests used:
[1] = biological target: ErbB2 with Exon 20 YVMA insertion (HER2-YVMA) (Homo sapiens (Human), UniProt P04626, INS775YVMA); test: Cellular Phosphorylation Assay, Assay 4 (constitutive ErbB2 phosphorylation, NIH 3T3 cells); type: cell-based; settings: ErbB2 YVMA phosphorylation
Method: NIH 3T3 cells were engineered to express ErbB2 with Exon 20 YVMA insertion (HER2-YVMA (SEQ ID NO: 2); Assay 4) or EGFR wild type (EGFR WT; Assay 5) with constructs obtained from GenScript and grown in DMEM supplemented with 10% fetal bovine serum and 15 μg/ml blasticidin. […] Serially diluted compounds were added to the plates for 1 hour at 37° C./5% CO2. EGFR WT cells were stimulated with 100 ng/ml rEGF for an additional 10 minutes at 37° C./5% CO2.
After compound incubation, medium was removed from the cells, which were then fixed in 3.7% formaldehyde in PBS at room temperature for 20 minutes. Following a wash with PBS, cells were permeabilized with 100% methanol at room temperature for 10 minutes. Cells were then washed with PBS/0.05% Tween-20 and blocked with Odyssey blocking buffer (LI-COR Biosciences) for at least 1 hour at room temperature. Antibodies to phosphorylated ErbB2 (Y1196, Cell Signaling #6942) or phosphorylated EGFR (Y1068, Cell Signaling #3777) and GAPDH (Millipore #MAB374) were added to the cells in blocking buffer containing 0.05% azide and incubated overnight at 4° C. After washing with PBS/0.05% Tween-20, the cells were incubated with fluorescently labeled secondary anti-rabbit antibody (LiCOR, IRDye 800CW #926-32211) and anti-mouse antibody (Molecular Probes, Alexa Fluor 680 #A21058) for 1 hour at room temperature in the dark. Cells were then washed and analyzed for fluorescence at both wavelengths using the Odyssey Infrared Imaging System (LI-COR Biosciences). Phosphorylated ErbB2 and EGFR signal was normalized to GAPDH signal to generate curves and calculate IC50 values.

EGFR wild type (EGFR WT) = EGFR wild type (EGFR WT) (Homo sapiens (Human), UniProt P00533); test: Cellular Phosphorylation Assay, Assay 5 (EGF-stimulated EGFR phosphorylation, NIH 3T3 cells); type: cell-based; settings: EGF-stimulated EGFR WT phosphorylation
EGFR = EGFR (Homo sapiens (Human), UniProt P00533); test: ErbB Enzyme Assay (HTRF KinEASE-TK), Assay 3; type: biochemical; settings: EGFR enzyme
ErbB2 WT = ErbB2 WT (Homo sapiens (Human), UniProt P04626); test: ErbB Enzyme Assay (HTRF KinEASE-TK), Assay 2; type: biochemical; settings: ErbB2 WT enzyme
Method: The kinases were incubated with 250 nM TK-substrate biotin (CisBio, part of cat #62TKOPEC) at 1 mM ATP along with test compounds in a buffer consisting of 25 mM HEPES, pH 7.4, 10 mM MgCl2, 0.01% Triton X-100, and 2% DMSO in a volume of 8 μL. […] After 30-minute incubation at 22° C., the reaction was quenched by adding 8 μL of quench solution containing 62.5 nM Sa-XL665 and 0.25×TK-Ab-Cryptate in HTRF detection buffer (all from CisBio, part of cat #62TKOPEC).

Chain of ErbB2 with Exon 20 YVMA insertion (HER2-YVMA) (P04626 other isoform, or with tags, fused parts or gaps ins YVMA behind 775): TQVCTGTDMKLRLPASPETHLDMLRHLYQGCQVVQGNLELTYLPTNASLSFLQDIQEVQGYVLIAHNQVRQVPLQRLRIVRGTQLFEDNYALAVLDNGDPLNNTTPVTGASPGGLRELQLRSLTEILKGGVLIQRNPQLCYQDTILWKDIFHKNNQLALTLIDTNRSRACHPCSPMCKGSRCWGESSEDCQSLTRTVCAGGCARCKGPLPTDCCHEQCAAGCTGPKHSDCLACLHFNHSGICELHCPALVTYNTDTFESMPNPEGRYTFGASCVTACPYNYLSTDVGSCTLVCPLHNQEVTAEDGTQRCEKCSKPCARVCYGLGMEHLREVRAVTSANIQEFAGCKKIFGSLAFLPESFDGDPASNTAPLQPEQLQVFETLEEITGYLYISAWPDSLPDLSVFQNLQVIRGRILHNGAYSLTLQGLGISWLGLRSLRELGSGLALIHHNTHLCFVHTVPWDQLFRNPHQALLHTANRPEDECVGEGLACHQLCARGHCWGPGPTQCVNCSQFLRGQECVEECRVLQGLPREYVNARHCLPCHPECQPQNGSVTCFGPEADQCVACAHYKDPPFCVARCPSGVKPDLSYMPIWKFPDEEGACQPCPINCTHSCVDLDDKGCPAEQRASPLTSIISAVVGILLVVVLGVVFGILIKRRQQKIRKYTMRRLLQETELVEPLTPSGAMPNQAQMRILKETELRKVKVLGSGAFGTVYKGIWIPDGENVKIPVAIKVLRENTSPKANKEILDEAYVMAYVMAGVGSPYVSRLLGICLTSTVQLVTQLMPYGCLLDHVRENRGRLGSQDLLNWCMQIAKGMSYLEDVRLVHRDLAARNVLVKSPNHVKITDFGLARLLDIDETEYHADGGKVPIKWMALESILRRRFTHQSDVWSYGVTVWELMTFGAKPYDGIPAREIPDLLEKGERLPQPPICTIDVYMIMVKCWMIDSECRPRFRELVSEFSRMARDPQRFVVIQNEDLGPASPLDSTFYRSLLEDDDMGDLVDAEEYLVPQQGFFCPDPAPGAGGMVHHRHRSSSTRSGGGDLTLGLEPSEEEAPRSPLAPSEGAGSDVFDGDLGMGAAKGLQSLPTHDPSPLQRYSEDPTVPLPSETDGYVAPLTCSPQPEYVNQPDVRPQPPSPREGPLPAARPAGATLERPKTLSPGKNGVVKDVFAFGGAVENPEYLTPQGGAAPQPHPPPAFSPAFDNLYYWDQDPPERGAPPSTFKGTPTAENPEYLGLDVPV
Chain of ErbB2 WT (P04626 23-1255): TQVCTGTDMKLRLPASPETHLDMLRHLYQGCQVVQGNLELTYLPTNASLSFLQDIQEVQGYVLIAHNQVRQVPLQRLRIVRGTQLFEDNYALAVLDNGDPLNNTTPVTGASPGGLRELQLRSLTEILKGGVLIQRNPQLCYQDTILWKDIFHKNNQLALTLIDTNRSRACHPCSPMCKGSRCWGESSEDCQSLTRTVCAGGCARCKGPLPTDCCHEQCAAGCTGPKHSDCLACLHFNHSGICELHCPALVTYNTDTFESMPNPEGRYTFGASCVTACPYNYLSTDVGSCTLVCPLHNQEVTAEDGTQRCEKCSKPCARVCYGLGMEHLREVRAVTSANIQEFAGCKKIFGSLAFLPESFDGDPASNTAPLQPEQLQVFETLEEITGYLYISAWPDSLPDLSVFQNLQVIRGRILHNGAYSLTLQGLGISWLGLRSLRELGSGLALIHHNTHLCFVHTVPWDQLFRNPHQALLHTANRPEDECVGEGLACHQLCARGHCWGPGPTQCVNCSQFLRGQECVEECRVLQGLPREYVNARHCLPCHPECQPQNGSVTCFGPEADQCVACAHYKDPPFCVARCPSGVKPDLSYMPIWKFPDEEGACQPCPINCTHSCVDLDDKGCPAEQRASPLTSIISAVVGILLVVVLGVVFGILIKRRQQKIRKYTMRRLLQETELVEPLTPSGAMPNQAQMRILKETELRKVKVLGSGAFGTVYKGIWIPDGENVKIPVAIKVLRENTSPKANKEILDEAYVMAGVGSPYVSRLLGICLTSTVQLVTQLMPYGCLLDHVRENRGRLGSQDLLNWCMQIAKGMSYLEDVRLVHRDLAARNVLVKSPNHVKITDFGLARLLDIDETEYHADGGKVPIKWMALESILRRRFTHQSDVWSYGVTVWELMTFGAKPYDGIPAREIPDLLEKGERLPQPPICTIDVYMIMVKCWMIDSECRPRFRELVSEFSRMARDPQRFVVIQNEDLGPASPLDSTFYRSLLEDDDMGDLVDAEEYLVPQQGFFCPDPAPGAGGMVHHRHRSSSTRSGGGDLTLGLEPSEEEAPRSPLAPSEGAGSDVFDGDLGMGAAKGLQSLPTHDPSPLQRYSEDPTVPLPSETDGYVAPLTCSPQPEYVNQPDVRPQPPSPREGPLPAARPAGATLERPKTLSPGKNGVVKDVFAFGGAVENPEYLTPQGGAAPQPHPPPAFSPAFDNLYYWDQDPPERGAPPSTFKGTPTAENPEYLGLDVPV
Chain of EGFR (P00533 25-1210): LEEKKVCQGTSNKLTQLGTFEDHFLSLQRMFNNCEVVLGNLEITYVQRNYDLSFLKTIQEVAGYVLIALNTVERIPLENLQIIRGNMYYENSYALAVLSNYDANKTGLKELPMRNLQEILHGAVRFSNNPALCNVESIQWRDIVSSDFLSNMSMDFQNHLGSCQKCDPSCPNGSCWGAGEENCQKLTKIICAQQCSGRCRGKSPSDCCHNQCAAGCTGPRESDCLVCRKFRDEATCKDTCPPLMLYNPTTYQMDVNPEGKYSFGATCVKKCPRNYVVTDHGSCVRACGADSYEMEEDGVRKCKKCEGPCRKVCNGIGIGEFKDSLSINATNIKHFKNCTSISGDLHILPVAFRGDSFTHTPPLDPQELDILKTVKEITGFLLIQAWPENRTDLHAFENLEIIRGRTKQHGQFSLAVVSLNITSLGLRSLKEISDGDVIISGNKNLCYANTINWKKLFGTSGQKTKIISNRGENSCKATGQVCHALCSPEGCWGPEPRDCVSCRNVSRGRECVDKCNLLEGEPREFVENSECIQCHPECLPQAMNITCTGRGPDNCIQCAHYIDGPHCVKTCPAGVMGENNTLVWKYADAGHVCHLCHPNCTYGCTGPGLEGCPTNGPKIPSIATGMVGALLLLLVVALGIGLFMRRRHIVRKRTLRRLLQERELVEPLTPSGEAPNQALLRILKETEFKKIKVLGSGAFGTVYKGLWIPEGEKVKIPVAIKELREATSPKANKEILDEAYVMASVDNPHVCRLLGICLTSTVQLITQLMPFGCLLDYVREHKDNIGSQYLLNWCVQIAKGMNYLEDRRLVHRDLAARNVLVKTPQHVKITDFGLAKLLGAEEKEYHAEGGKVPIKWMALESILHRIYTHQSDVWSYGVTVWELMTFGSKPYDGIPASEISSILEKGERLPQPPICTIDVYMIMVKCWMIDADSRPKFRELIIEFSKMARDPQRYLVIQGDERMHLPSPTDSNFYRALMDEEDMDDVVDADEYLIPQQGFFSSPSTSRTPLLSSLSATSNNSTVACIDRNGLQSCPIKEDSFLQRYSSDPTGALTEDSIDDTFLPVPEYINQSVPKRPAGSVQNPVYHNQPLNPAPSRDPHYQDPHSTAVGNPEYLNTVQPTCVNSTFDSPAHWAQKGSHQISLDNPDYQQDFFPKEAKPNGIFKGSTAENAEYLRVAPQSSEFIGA
Chain of EGFR wild type (EGFR WT) (P00533 25-1210): as above

For `C=CC(=O)N1CC[C@@H]2C[C@@H](c3ccc4ncnc(Nc5cc(C)c(Oc6ccn7ncnc7c6)cc5F)c4n3)C[C@@H]21` (single isomer, unassigned) [Example 224], the IC50 [1] was 91.3 nM, the IC50 (EGFR wild type (EGFR WT)) was ≥ 5000 nM and the IC50 (EGFR) was 2290 nM. It also gave an IC50 (ErbB2 WT) of 58 nM.

In the case of `C=CC(=O)N1[C@@H]2CC[C@H]1[C@H](c1ccc3ncnc(Nc4ccc(Oc5ccn6ncnc6c5)c(C)c4)c3n1)C2` (single isomer, unassigned) [Example 233], the IC50 [1] is reported as 83.8 nM, the IC50 (EGFR wild type (EGFR WT)) is reported as ≥ 5000 nM and the IC50 (EGFR) is reported as 4880 nM. For the same compound, the IC50 (ErbB2 WT) was 121 nM.

`C=CC(=O)N1C[C@H]2CC[C@@H]1C[C@@H]2c1ccc2ncnc(Nc3ccc(Oc4ccn5ncnc5c4)c(C)c3F)c2n1` (single isomer, unassigned) [Example 234] was tested, and the IC50 [1] was 33 nM, the IC50 (EGFR wild type (EGFR WT)) was 875 nM and the IC50 (EGFR) was 960 nM. The IC50 (ErbB2 WT) was 37.3 nM.

With `C=CC(=O)N1C[C@@H]2CC[C@H]1C[C@H]2c1ccc2ncnc(Nc3ccc(Oc4ccn5ncnc5c4)c(C)c3F)c2n1` (single isomer, unassigned) [Example 235] the IC50 [1] was 92.1 nM, the IC50 (EGFR wild type (EGFR WT)) was ≥ 5000 nM and the IC50 (EGFR) was 1020 nM. For the same compound, the IC50 (ErbB2 WT) was 31 nM.

In the case of `C=CC(=O)N1CCC(Oc2ccc3ncnc(Nc4cc(Cl)c(Oc5ccc6cn(C)nc6c5)cc4Cl)c3n2)CC1` [Example 2, 1-(4-((4-((2,5-dichloro-4-((2-methyl-2H-indazol-6-yl)oxy)phenyl)amino)pyrido[3,2-d]pyrimidin-6-yl)oxy)piperidin-1-yl)prop-2-en-1-one], the IC50 [1] is reported as 1140 nM, the IC50 (EGFR wild type (EGFR WT)) is reported as ≥ 5000 nM and the IC50 (EGFR) is reported as ≥ 10000 nM. It also gave an IC50 (ErbB2 WT) of 1290 nM.

With `C=CC(=O)N1CCC(Oc2ccc3ncnc(Nc4cc(Cl)c(Oc5ccc6cn(C)nc6c5)cc4F)c3n2)CC1` [Example 4, 1-(4-((4-((5-chloro-2-fluoro-4-((2-methyl-2H-indazol-6-yl)oxy)phenyl)amino)pyrido[3,2-d]pyrimidin-6-yl)oxy)piperidin-1-yl)prop-2-en-1-one] the IC50 [1] was 392 nM, the IC50 (EGFR wild type (EGFR WT)) was ≥ 5000 nM and the IC50 (EGFR) was ≥ 10000 nM. For the same compound, the IC50 (ErbB2 WT) was 876 nM.

In the case of `C=CC(=O)N1CCC(Oc2ccc3ncnc(Nc4cc(C)c(Oc5ccc6cn(C)nc6c5)cc4F)c3n2)CC1` [Example 5, 1-(4-((4-((2-fluoro-5-methyl-4-((2-methyl-2H-indazol-6-yl)oxy)phenyl)amino)pyrido[3,2-d]pyrimidin-6-yl)oxy)piperidin-1-yl)prop-2-en-1-one], the IC50 [1] is reported as 407 nM, the IC50 (EGFR wild type (EGFR WT)) is reported as ≥ 5000 nM and the IC50 (EGFR) is reported as ≥ 10000 nM. It also gave an IC50 (ErbB2 WT) of 2340 nM.

In the case of `C=CC(=O)N1CCC(Oc2ccc3ncnc(Nc4ccc(Oc5cnn6ccnc6c5)c(C)c4)c3n2)CC1` [Example 8, 1-(4-((4-((4-(imidazo[1,2-b]pyridazin-7-yloxy)-3-methylphenyl)amino)pyrido[3,2-d]pyrimidin-6-yl)oxy)piperidin-1-yl)prop-2-en-1-one], the IC50 [1] is reported as 47.3 nM, the IC50 (EGFR wild type (EGFR WT)) is reported as 799 nM and the IC50 (EGFR) is reported as 1350 nM. The IC50 (ErbB2 WT) was 76.5 nM.

With `C=CC(=O)N1CCC(Oc2ccc3ncnc(Nc4ccc(Oc5ccc6cn(C)nc6c5)c(F)c4)c3n2)CC1` [Example 12, 1-(4-((4-((3-fluoro-4-((2-methyl-2H-indazol-6-yl)oxy)phenyl)amino)pyrido[3,2-d]pyrimidin-6-yl)oxy)piperidin-1-yl)prop-2-en-1-one] the IC50 [1] was 193 nM, the IC50 (EGFR wild type (EGFR WT)) was ≥ 5000 nM and the IC50 (EGFR) was ≥ 10000 nM. For the same compound, the IC50 (ErbB2 WT) was 1030 nM.

For `C=CC(=O)N1CCC(Oc2ccc3ncnc(Nc4ccc(Oc5cnc6cn(C)nc6c5)c(C)c4)c3n2)CC1` [Example 14, 1-(4-((4-((3-methyl-4-((2-methyl-2H-pyrazolo[4,3-b]pyridin-6-yl)oxy)phenyl)amino)pyrido[3,2-d]pyrimidin-6-yl)oxy)piperidin-1-yl)prop-2-en-1-one], the IC50 [1] was 48.4 nM, the IC50 (EGFR wild type (EGFR WT)) was ≥ 5000 nM and the IC50 (EGFR) was ≥ 10000 nM. It also gave an IC50 (ErbB2 WT) of 432 nM.

With `C=C(C)c1ccc2ncnc(Nc3ccc(Oc4ccc5c(c4)ncn5C)c(C)c3)c2n1` [Example 24, N-(3-methyl-4-((1-methyl-1H-benzo[d]imidazol-5-yl)oxy)phenyl)-6-(prop-1-en-2-yl)pyrido[3,2-d]pyrimidin-4-amine] the IC50 [1] was 70.6 nM, the IC50 (EGFR wild type (EGFR WT)) was ≥ 5000 nM and the IC50 (EGFR) was ≥ 10000 nM. For the same compound, the IC50 (ErbB2 WT) was 194 nM.

In the case of `Cc1c(Oc2ccn3ncnc3c2)ccc(Nc2ncnc3ccc(N4C[C@@H]5CCN(C(=O)C67CC6C7)[C@@H]5C4)nc23)c1F` (stereo partly drawn) [Example 27, ((3aS,6aS)-5-(4-((4-([1,2,4]triazolo[1,5-a]pyridin-7-yloxy)-2-fluoro-3-methylphenyl)amino)pyrido[3,2-d]pyrimidin-6-yl)hexahydropyrrolo[3,4-b]pyrrol-1(2H)-yl)(bicyclo[1.1.0]butan-1-yl)methanone], the IC50 [1] is reported as 381 nM, the IC50 (EGFR wild type (EGFR WT)) is reported as ≥ 5000 nM and the IC50 (EGFR) is reported as ≥ 10000 nM. For the same compound, the IC50 (ErbB2 WT) was 486 nM.

For `C=CC(=O)N1CC[C@@H]2C[C@H]1CN2c1ccc2ncnc(Nc3ccc(Oc4ccc5c(c4)ncn5C)c(C)c3F)c2n1` [Example 29, 1-((1 S,5R)-6-(4-((2-fluoro-3-methyl-4-((1-methyl-1H-benzo[d]imidazol-5-yl)oxy)phenyl)amino)pyrido[3,2-d]pyrimidin-6-yl)-2,6-diazabicyclo[3.2.1]octan-2-yl)prop-2-en-1-one], the IC50 [1] was 5.8 nM, the IC50 (EGFR wild type (EGFR WT)) was 118 nM and the IC50 (EGFR) was 311 nM. It also gave an IC50 (ErbB2 WT) of 36.5 nM.

With `C=CC(=O)N1CCC2CN(c3nc4c(Nc5ccc(Oc6ccn7ncnc7c6)c(Cl)c5F)ncnc4cc3OC)CC21` (centres unmarked) [Example 38, 1-(5-(4-((4-([1,2,4]triazolo[1,5-a]pyridin-7-yloxy)-3-chloro-2-fluorophenyl)amino)-7-methoxypyrido[3,2-d]pyrimidin-6-yl)hexahydropyrrolo[3,4-b]pyrrol-1(2H)-yl)prop-2-en-1-one] the IC50 [1] was 22.6 nM, the IC50 (EGFR wild type (EGFR WT)) was 382 nM and the IC50 (EGFR) was 153 nM. For the same compound, the IC50 (ErbB2 WT) was 8.5 nM.

In the case of `C=CC(=O)N1CCC(Oc2nc3c(Nc4ccc(Oc5ccn6ncnc6c5)c(C)c4F)ncnc3cc2OC)CC1` [Example 40, 1-(4-((4-((4-([1,2,4]triazolo[1,5-a]pyridin-7-yloxy)-2-fluoro-3-methylphenyl)amino)-7-methoxypyrido[3,2-d]pyrimidin-6-yl)oxy)piperidin-1-yl)prop-2-en-1-one], the IC50 [1] is reported as 7.8 nM, the IC50 (EGFR wild type (EGFR WT)) is reported as 111 nM and the IC50 (EGFR) is reported as 300 nM. For the same compound, the IC50 (ErbB2 WT) was 11.3 nM.

In the case of `C=CC(=O)N1C2CC1CN(c1ccc3ncnc(Nc4cc(Cl)c(Oc5ccn6ncnc6c5)cc4F)c3n1)C2` [Example 44, 1-(3-(4-((4-([1,2,4]triazolo[1,5-a]pyridin-7-yloxy)-5-chloro-2-fluorophenyl)amino)pyrido[3,2-d]pyrimidin-6-yl)-3,6-diazabicyclo[3.1.1]heptan-6-yl)prop-2-en-1-one], the IC50 [1] is reported as 55.7 nM, the IC50 (EGFR wild type (EGFR WT)) is reported as ≥ 5000 nM and the IC50 (EGFR) is reported as ≥ 10000 nM. It also gave an IC50 (ErbB2 WT) of 81.5 nM.

`C=CC(=O)N1CCC(Oc2ccc3ncnc(Nc4ccc(Oc5cnn6c(C)cnc6c5)c(Cl)c4F)c3n2)CC1` [Example 53, 1-(4-((4-((3-chloro-2-fluoro-4-((3-methylimidazo[1,2-b]pyridazin-7-yl)oxy)phenyl)amino)pyrido[3,2-d]pyrimidin-6-yl)oxy)piperidin-1-yl)prop-2-en-1-one] showed an IC50 [1] of 41.1 nM, an IC50 (EGFR wild type (EGFR WT)) of 1240 nM and an IC50 (EGFR) of 1450 nM. It also gave an IC50 (ErbB2 WT) of 99.1 nM.

`C=CC(=O)N1CCC(Oc2ccc3ncnc(Nc4ccc(Oc5cnn6ccnc6c5)c(Cl)c4)c3n2)CC1` [Example 54, 1-(4-((4-((3-chloro-4-(imidazo[1,2-b]pyridazin-7-yloxy)phenyl)amino)pyrido[3,2-d]pyrimidin-6-yl)oxy)piperidin-1-yl)prop-2-en-1-one] showed an IC50 [1] of 40 nM, an IC50 (EGFR wild type (EGFR WT)) of 1470 nM and an IC50 (EGFR) of 1380 nM. For the same compound, the IC50 (ErbB2 WT) was 423 nM.

`C=CC(=O)N1CCC(Oc2ccc3ncnc(Nc4ccc(Oc5cnn6c(C)cnc6c5)c(C)c4F)c3n2)CC1` [Example 55, 1-(4-((4-((2-fluoro-3-methyl-4-((3-methylimidazo[1,2-b]pyridazin-7-yl)oxy)phenyl)amino)pyrido[3,2-d]pyrimidin-6-yl)oxy)piperidin-1-yl)prop-2-en-1-one] was tested, and the IC50 [1] was 50.8 nM, the IC50 (EGFR wild type (EGFR WT)) was 930 nM and the IC50 (EGFR) was ≥ 10000 nM. The IC50 (ErbB2 WT) was 2040 nM.

Work on `C=CC(=O)N1CCC(Oc2ccc3ncnc(Nc4ccc(Oc5cnn6ccnc6c5)c(C)c4F)c3n2)CC1` [Example 56, 1-(4-((4-((2-fluoro-4-(imidazo[1,2-b]pyridazin-7-yloxy)-3-methylphenyl)amino)pyrido[3,2-d]pyrimidin-6-yl)oxy)piperidin-1-yl)prop-2-en-1-one] yielded an IC50 [1] of 19.7 nM, an IC50 (EGFR wild type (EGFR WT)) of 374 nM and an IC50 (EGFR) of 1440 nM. It also gave an IC50 (ErbB2 WT) of 233 nM.

Reference: patent US12447153B2, “HER2 mutation inhibitors” (Array BioPharma Inc., priority 2021, dated 2025)
